From patent US7943160B2, “Pest control methods” (priority 2002, dated 2011)
Values joined by “and” are separate entries in the source; they are usually repeats but may differ in a detail not shown here. Identical values can stand only once.

How the values were obtained:
Format in all cases: in vivo
[1] = tested on: larval ticks (I. scapularis); test: Systemic efficacy of fipronil diet on larval ticks fed on laboratory mice; details: for Replete Ticks: individual mice; for Replete Ticks, Total: 8 mice
Method: To investigate the systemic efficacy of fipronil against ticks, diet compositions formulated with the compound were presented to treatment mice while an EPA challenge diet, without insecticide, was presented to control mice. Diet compositions were presented for 48 hours. Water was supplied ad libitum. Feed consumption was monitored throughout the study. After 48-hours, mice were removed from their cages and 50-70 I. scapularis were applied to each mouse by first placing mice in 50 ml centrifuge tubes will multiple holes in them. Holes were created by melting the centrifuge tube with a soldering iron. Ticks were then applied and mice remained restrained in the tubes for 2-5 hours, thereby allowing the ticks to attach. The mice were placed in cages suspended over water in a humidity chamber maintaining humidity between 60-80%. Water underneath the suspended mice was checked daily for the presence of ticks falling from the mice. The number of fed and unfed ticks was recorded. Water pans were checked for 6 days. The ticks were kept at 21° C., 90% humidity and a light cycle of 16L:8D. Pans were checked for 5 days. The end-point for the insecticides were larval tick mortality after exposure.
Study 1a: A Diet Composition Containing 970-ppm Fipronil Diet was Formulated Using Inert Ingredients of Rolled Oats, Corn Meal, Powdered Sugar and Corn Oil.
The diet was exposed to laboratory mice for 48 hours.
Study 2a: A Diet Composition Containing 485-ppm Fipronil Diet was Formulated and Exposed to Laboratory Mice for 48 Hours.
The diet was exposed to laboratory mice for 48 hours. Ticks were applied directly to the mice.

[2] = tested on: larval ticks (I. scapularis); test: as above; details: diet compositions containing 960-ppm fipronil (so in the source)
German cockroaches = test: Cockroach mortality on rodent challenge diet fortified with imidacloprid; details: EPA challenge diet fortified with 250 mg/kg imidacloprid
Method: To determine if rodent diet compositions containing imidacloprid would be effective at controlling cockroaches, German cockroaches were received from a commercial supplier and placed in a sealed container. Rodent “challenge diet”, the EPA standard rodent diet formulation, fortified with 250 mg/kg imidacloprid was placed in the cage. Water was supplied by a wet cotton wick. The mortality of cockroaches consuming diet was 100%.

X. cheopis fleas = test: Flea mortality on rats fed imidacloprid or imidacloprid/piperonyl butoxide diet
Method: For example, an investigation was conducted into the ability of piperonyl butoxide to potentiate the insecticidal activity of orally administered imidacloprid to rats challenged with fleas. Piperonyl butoxide compound is known to produce significant decreases in hepatic cytochrome P450 in rats (Dalvi and Dalvi 1991). Because imidacloprid is also metabolized by cytochrome P450 in rats (Schulz-Jander et al. 2002), decreasing the metabolism rate of imidacloprid in the rat (i.e., the rate at which imidacloprid is metabolized by the rat) may increase the availability and therefore the toxicity of the compound to fleas as well as possibly increasing the residual action of the insecticide. Four rats were evaluated for each test diet. Rats were individually housed in individual cages. Rats were housed in cages measuring 24×40.5×18 cm (L×W×H). The floor area measured 972 cm^2. Tap water in glass bottles with stainless steel sipper tubes was available ad libitum. Cages were suspended from shelves on two, single-sided racks. Rats were placed in cages identified by a consecutive number 1-8 and a descriptor for their sex (e.g. M or F). PBO Technical (Prentox®) was received from Prentiss Inc. (Floral Park, N.Y., Lot# 41428). Diet composition was made using the following recipes:
The imidacloprid (Imi) diet composition was formulated at 167 mg/kg imidacloprid. The imidacloprid/PBO diet composition was formulated at 169 mg/kg imidacloprid and 1% PBO. Diets were mixed and presented no-choice to rats for 24 hours. Flea feeding capsules, containing fleas (X. cheopis) were secured to the rats and remained attached for 5 hrs. After exposure, the flea feeders were removed and placed in the humidity chamber until the following morning. Fleas were then evaluated for mortality and morbidity (Table 5).

Compound	Replete Ticks ([1]; 485 ppm fipronil diet 48 hours, 70 ticks applied per mouse)	Replete Ticks, Total ([1]; 485 ppm fipronil diet, 70 ticks each, control total 162)	Replete Ticks ([1]; 970-ppm fipronil diet 48 hours, 50 ticks applied per mouse)	Replete Ticks, Total ([1]; 970-ppm fipronil diet, 50 ticks each, control total 12)	prevents ticks from feeding to repletion ([1]; fipronil formulated at 485 mg/kg in diet)	preventing ticks from feeding to repletion [2]	mortality of cockroaches consuming diet (German cockroaches) [%]	Total fleas dead/recovered (X. cheopis fleas; 4 rats per diet, pooled)	Total Percent Mortality (%) (X. cheopis fleas; 4 rats per diet, Imi 167 mg/kg, Imi/pip 169 mg/kg imidacloprid and 1% PBO)	# Fleas Dead/# Fleas Recovered (X. cheopis fleas; individual rats, diet 24 hours, flea capsules attached 5 hrs, Imi 167 mg/kg, Imi/pip 169 mg/kg imidacloprid and 1% PBO)
N#Cc1nn(-c2c(Cl)cc(C(F)(F)F)cc2Cl)c(N)c1[S+]([O-])C(F)(F)F (stereo not shown) [Fipronil, fipronil]	0	0	0	0	prevents ticks from feeding to repletion	effective at preventing ticks from feeding to repletion				
O=[N+]([O-])NC1=NCCN1Cc1ccc(Cl)nc1 [Imidacloprid, imidacloprid]							100	(71/85)	83.5	20/24 and 18/18 and 15/15 and 18/28
